For three molecules, Ki and inhibition results are on record in PMC7508162 (Frontiers in Pharmacology, 2020).

As a reminder, the Ki is a dissociation constant, usually derived from enzyme kinetics or from competition with a known ligand. By inhibition is commonly meant the drop in the measured response relative to a control, in per cent.

The target in one test is T1, NPP1 (Homo sapiens, UniProt P22413).
T1 construct: the catalytic domains of the enzymes were amplified and sub-cloned into the expression vector pACGP67 A/B; made in house; host or cells: Sf9 insect cells
T1 sequence (P22413 98-925 limits assumed): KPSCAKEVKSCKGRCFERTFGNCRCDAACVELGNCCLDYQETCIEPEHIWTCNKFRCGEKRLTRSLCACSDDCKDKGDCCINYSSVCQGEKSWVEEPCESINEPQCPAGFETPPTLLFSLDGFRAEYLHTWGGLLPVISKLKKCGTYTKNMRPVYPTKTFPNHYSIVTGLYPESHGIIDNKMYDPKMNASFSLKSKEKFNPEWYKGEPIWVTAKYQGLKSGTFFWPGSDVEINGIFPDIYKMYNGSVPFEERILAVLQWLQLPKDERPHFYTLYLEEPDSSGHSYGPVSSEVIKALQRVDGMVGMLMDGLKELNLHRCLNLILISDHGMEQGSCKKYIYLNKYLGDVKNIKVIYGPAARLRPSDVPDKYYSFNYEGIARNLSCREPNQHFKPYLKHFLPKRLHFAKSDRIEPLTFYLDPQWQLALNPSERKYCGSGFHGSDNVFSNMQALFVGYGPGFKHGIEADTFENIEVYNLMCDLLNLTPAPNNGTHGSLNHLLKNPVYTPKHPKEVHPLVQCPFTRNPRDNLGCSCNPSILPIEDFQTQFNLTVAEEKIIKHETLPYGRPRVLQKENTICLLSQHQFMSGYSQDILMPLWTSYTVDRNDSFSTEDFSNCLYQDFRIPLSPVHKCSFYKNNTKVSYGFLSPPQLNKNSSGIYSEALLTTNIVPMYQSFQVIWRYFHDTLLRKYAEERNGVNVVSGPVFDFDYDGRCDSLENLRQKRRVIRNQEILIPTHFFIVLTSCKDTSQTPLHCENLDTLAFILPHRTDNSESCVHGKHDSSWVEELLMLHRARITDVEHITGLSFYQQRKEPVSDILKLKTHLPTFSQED
In words: NPP1 assay with p-Nph-5'-TMP as substrate. The format is biochemical. The conditions noted are these: soluble NPP1; 400 µM p-Nph-5'-TMP; read-out: Ki ± SEM. The source says:
(§1) The cDNAs of the human enzymes NPP1, NPP3, NPP5, CD38 and CD73 (Genbank accession no. NM_006258, NM_005021, NM_021572, NM_ 001775, and NM_002526, respectively) were obtained from Origene (Rockville, USA). Soluble enzymes were produced as previously reported with some modifications ([Lee et al., 2015]; [Junker et al., 2019]). Briefly, the catalytic domains of the enzymes were amplified and sub-cloned into the expression vector pACGP67 A/B modified with the addition of 9 x histidine tag (His-tag) at the C-terminus (except for NPP1). The plasmids were transfected in Sf9 insect cells using Cellfectin™ II Reagent (Thermo Fisher Scientific, MA, USA) and ProEasy™ baculovirus linearized DNA (Cat.#A10S, AB Vector, LLC). Protein expression was conducted for 48 h at 27°C. The signal peptide sequence of the expression vector shuttled the proteins into the supernatant. The supernatant medium was collected, and the enzymes were purified using HisPur™ Ni^2+-NTA spin columns according to the manufacturer’s protocol. The protein concentration was determined by the method previously described by [Lowry et al. (1951)].
Inhibition of NPP1 was determined as previously described ([Lee et al., 2017b]). p-Nitrophenyl-5’-thymidine monophosphate (p-Nph-5’-TMP) was used as an artificial substrate which results in the formation of the p-nitrophenolate anion with an absorption maximum of 400 nm. Purified soluble NPP1 [0.36 µg, expressed in Sf9 insect cells as previously described ([Lee et al., 2015])] was mixed with test compound (20 µM final concentration for initial screening, 0.1–200 µM for determining concentration-dependent inhibition curves), 2% DMSO and 400 µM of p-Nph-5’-TMP as a substrate in a final volume of 100 µl. The mixture was incubated for 30 min at 37°C with gentle shaking, and the enzyme reaction was terminated by the addition of 20 µl of 1 M NaOH. The absorption was measured at 405 nm using a BMG PheraStar FS plate reader (BMG Labtech GmbH, Ortenberg, Germany).

Another test has as its target T2, human NPP5 (Homo sapiens, UniProt Q9UJA9).
T2 construct: the catalytic domains of the enzymes were amplified and sub-cloned into the expression vector pACGP67 A/B; 9xHis (C); made in house; host or cells: Sf9 insect cells (baculovirus, pACGP67 A/B)
T2 sequence (Q9UJA9 25-431 limits assumed): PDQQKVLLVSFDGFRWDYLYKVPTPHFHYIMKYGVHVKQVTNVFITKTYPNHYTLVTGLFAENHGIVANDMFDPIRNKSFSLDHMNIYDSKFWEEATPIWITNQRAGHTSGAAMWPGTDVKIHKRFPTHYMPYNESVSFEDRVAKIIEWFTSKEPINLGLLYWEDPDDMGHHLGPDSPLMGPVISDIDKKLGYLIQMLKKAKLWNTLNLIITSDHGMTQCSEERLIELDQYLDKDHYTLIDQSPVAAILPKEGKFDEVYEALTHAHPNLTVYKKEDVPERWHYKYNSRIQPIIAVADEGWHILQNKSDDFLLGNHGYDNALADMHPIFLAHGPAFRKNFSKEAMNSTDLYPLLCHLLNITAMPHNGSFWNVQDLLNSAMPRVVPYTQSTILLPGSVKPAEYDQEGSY
In words: NPP5 assay with ϵ-NAD+ as substrate. The format is biochemical. As to conditions: for inhibition at 10 µM: 10 µM test compound; for Ki: 20 µM ϵ-NAD+, read-out: Ki ± SEM.
Description: as §1
The assays were performed in analogy to published procedures ([Blacher et al., 2015]). The enzymatic activity of human NPP3 and NPP5 (soluble forms expressed in insect cells and purified as previously described ([Lee et al., 2015]; [Lopez et al., 2020]) was measured using 1,N^6-etheno-nicotinamide adenine dinucleotide (ϵ-NAD^+) as a substrate, which is hydrolyzed to fluorescent 1,N^6-etheno-AMP (ϵ-AMP). The enzymatic reactions were performed in reaction buffer [10 mM N-cyclohexyl-2-aminoethanesulfonic acid (CHES), 2 mM CaCl2, and 1 mM MgCl2, pH 9.0 in H2O]. Purified NPP3 (90 ng) or NPP5 (400 ng), 20 µM of ϵ-NAD^+ and 10 µM of the test compound were incubated for 30 min at 37°C. The relative fluorescence at 270 nm excitation and 420 nm emission was detected by a fluorescence microplate reader (Flexstation, Medical Devices LLC. USA, Softmax Pro software to collect the data).

`CCCCSc1nc2c(N)ncnc2n1[C@@H]1O[C@H](COP(=O)(O)OP(=O)(O)C(Br)(Br)P(=O)(O)O)[C@@H](O)[C@H]1O` [Compound 31, (((((((2R,3S,4R,5R)-5-(6-Amino-8-(butylthio)-9H-purin-9-yl)-3,4-dihydroxytetrahydrofuran-2-yl)methoxy)(hydroxy)-phosphoryl)oxy)(hydroxy)phosphoryl)dibromomethyl)-phosphonic Acid]: the Ki at NPP1 is 5.17 ± 1.75 µM; at human NPP5 it was over 10 µM. Besides, the inhibition at 10 µM against human NPP5 is 2%.

Turning to `CCN(CC)c1ncnc2c1ncn2[C@@H]1O[C@H](COP(=O)(O)OP(=O)(O)C(Br)(Br)P(=O)(O)O)[C@@H](O)[C@H]1O` [ARL67156, (Dibromo((((((2R,3S,4R,5R)-5-(6-(diethylamino)-9H-purin-9-yl)-3,4-dihydroxytetrahydrofuran-2-yl)methoxy)-(hydroxy)-phosphoryl)oxy)(hydroxy)phosphoryl)methyl)-phosphonic Acid, reference compound], the figures for the Ki on NPP1 and at human NPP5 were 4.41 ± 3.53 µM and over 10 µM, respectively. The inhibition at 10 µM against human NPP5 is -3%.

`CCCCNc1nc2c(NC)ncnc2n1[C@@H]1O[C@H](COP(=O)(O)OP(=O)(O)C(Br)(Br)P(=O)(O)O)[C@@H](O)[C@H]1O` [Compound 33, (Dibromo((((((2R,3S,4R,5R)-5-(8-(butylamino)-6-(methylamino)-9H-purin-9-yl)-3,4-dihydroxy-tetrahydrofuran-2-yl)methoxy)(hydroxy)phosphoryl)oxy)-(hydroxy)phosphoryl)methyl)-phosphonic Acid]: on NPP1, the Ki stood at 7.68 ± 5.4 µM. For the same molecule, on human NPP5, the inhibition at 10 µM stood at 1% and the Ki was over 10 µM.
